US8466107B2, “Fibrin-binding peptides and conjugates thereof” (Bracco Imaging SpA, priority 2006, dated 2013)
Bridge positions count the residues as written; N and C are the ends. Square brackets hold non-standard residues; d marks the D form. Peptide text beside a SMILES is read from it. * marks the point of attachment. 5FAM = O=C1OC2(c3ccc(O)cc3Oc3cc(O)ccc32)c2ccc(C(=O)*)cc21; Cha = N[C@@H](CC1CCCCC1)C(=O)O; AEEA = NCCOCCOCC(=O)O

Target: DDE (fibrin-derived polypeptide) (Homo sapiens, UniProt P02671+P02675+P02679)
Test: Direct binding fluorescence polarization (FP) assay using 5-carboxyfluorescein labeled peptides
Conditions: 20 nM CF5-labeled peptide, serial dilutions of DDE, anisotropy read at 485 nm; read-out: KD (μM) Direct Binding (n = 2)
Protocol: Assay of Fibrin Binding Peptides by Direct Binding Fluorescence Polarization (FP) Procedure using 5-Carboxyfluoresein Labeled Peptides
Protocol • 1. Prepare 1 mL of 40 nM solution of 5-carboxyfluorescein-labeled peptide in HEPES dilution buffer (HDB) with 0.01% Tween. • HDB (10 mM HEPES, 150 mM […], 2 mM CaCl2) • 2. Dilute the 40 nM solution to obtain 1 ml of a 20 nM solution of the test 5-carboxyfluorescein-labeled peptide. • 3. Prepare a solution of DDE at a concentration that will be approximately 5-10 fold greater than the expected KD. For the described assay an 8 μM concentration of DDE was prepared. • 4. Mix equal volumes of the DDE solution with the 40 nM peptide solution. • 5. Prepare serial dilutions of DDE in a solution consisting of the binding buffer with 0.01% Tween20 and 20 nM of the 5-carboxyfluorescein-labeled peptide. • 6. Make dilutions as shown in the following table in a Labsystems 384-well microplate and mix by repeated aspiration and dispensing of the solution into the wells. • 7. Centrifuge the plate at 2000 RPM for 5 minutes to remove air pockets in the wells. • 8. Read in Tecan Polarion Plate Reader at 485 nm to obtain the anisotropy value.
The anisotropy (in mP—millipolarization units) vs the logarithm of the concentration (micromoles/liter) of the receptor concentration is graphed. The dissociation constant is obtained at the midpoint of the curve whose extrema are Afree and Abound where Afree is the anisotropy of the free peptide and Abound is the anisotropy of the fully bound peptide. The theory, methods of operation and mathematical analysis is described in, for example, the following reference: Fluorescence Polarization Technical Resource Guide Technical Resource Guide 4th Edn. Invitrogen Corporation•501 Charmany Drive•Madison, Wis. 53719 USA. Particularly, the mathematical analysis of the data and obtaining binding constants is described in Chapter 8: Analysis of FP Binding Data pp 8-2-8-7.

DDE (fibrin-derived polypeptide), sequence (P02671 124-216): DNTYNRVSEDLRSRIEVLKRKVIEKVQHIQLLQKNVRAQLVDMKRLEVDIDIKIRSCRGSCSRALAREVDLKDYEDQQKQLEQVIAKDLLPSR
DDE (fibrin-derived polypeptide), sequence (P02675 164-491): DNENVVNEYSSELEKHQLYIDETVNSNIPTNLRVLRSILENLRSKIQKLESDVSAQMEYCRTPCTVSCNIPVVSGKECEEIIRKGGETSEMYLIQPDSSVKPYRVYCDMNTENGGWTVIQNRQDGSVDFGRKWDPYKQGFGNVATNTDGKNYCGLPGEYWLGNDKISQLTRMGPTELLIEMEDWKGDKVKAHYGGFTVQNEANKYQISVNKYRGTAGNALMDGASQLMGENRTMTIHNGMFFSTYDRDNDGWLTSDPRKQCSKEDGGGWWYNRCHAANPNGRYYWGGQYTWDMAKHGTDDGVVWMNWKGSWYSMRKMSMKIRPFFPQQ
DDE (fibrin-derived polypeptide), sequence (P02679 114-432): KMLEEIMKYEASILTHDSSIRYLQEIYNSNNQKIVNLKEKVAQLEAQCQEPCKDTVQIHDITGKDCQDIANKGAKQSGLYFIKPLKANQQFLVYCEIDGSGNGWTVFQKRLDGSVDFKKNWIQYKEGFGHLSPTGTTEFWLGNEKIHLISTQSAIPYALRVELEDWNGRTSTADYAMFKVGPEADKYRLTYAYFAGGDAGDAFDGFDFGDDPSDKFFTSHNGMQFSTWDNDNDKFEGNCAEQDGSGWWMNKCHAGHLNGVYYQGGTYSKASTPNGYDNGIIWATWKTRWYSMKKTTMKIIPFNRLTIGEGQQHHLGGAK
DDE (fibrin-derived polypeptide), sequence (P02671 36-97): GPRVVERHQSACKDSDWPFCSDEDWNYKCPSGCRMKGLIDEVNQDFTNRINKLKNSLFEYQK
DDE (fibrin-derived polypeptide), sequence (P02675 45-152): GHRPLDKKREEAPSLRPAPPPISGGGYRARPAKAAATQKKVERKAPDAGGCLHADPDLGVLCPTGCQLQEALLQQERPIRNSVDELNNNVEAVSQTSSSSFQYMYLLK
DDE (fibrin-derived polypeptide), sequence (P02679 27-88): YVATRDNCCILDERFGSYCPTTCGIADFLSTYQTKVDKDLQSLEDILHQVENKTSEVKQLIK

| Kd [µM] | SMILES |
| --- | --- |
| 0.17 | CC(=O)N[C@@H](Cc1c[nH]c2ccccc12)C(=O)N[C@@H](CCC(N)=O)C(=O)N1CCC[C@H]1C(=O)N[C@H]1CSSC[C@@H](C(=O)N[C@@H](Cc2c[nH]c3ccccc23)C(=O)N[C@@H](CC(=O)O)C(=O)N2CCC[C@H]2C(=O)NCC(=O)NCC(=O)NCC(=O)N[C@@H](CCCCNC(=O)c2ccc3c(c2)C(=O)OC32c3ccc(O)cc3Oc3cc(O)ccc32)C(N)=O)NC(=O)[C@H](CC2CCCCC2)NC(=O)[C@H]([C@@H](C)O)NC(=O)[C@H](Cc2c[nH]c3ccccc23)NC(=O)[C@H](CO)NC(=O)[C@H](CCC(=O)O)NC(=O)[C@H](C)NC(=O)[C@@H]2CCCN2C1=O [Seq042-CF5, Ac-WQPC*PAESWT-Cha-C*WDPGGGK(CF5)-NH2] (Ac-WQPCPAESWT[Cha]CWDPGGGK(5FAM)-NH2; disulfide 4-12) |
| 0.08 | CC(=O)N[C@@H](CCCNC(=N)N)C(=O)N[C@@H](Cc1c[nH]c2ccccc12)C(=O)N[C@@H](CCC(N)=O)C(=O)N1CCC[C@H]1C(=O)N[C@H]1CSSC[C@@H](C(=O)N[C@@H](Cc2c[nH]c3ccccc23)C(=O)N[C@@H](CC(=O)O)C(=O)N2CCC[C@H]2C(=O)NCC(=O)NCC(=O)NCC(=O)N[C@@H](CCCCNC(=O)c2ccc3c(c2)C(=O)OC32c3ccc(O)cc3Oc3cc(O)ccc32)C(N)=O)NC(=O)[C@H](CC2CCCCC2)NC(=O)[C@H]([C@@H](C)O)NC(=O)[C@H](Cc2c[nH]c3ccccc23)NC(=O)[C@H](CO)NC(=O)[C@H](CCC(=O)O)NC(=O)[C@H](C)NC(=O)[C@@H]2CCCN2C1=O [Seq050-CF5, Ac-RWQPC*PAESWT-Cha-C*WDPGGGK(CF5)-NH2] (Ac-RWQPCPAESWT[Cha]CWDPGGGK(5FAM)-NH2; disulfide 5-13) |
| 0.06 | C[C@@H]1NC(=O)[C@@H]2CCCN2C(=O)[C@@H](NC(=O)[C@@H]2CCCN2C(=O)[C@H](CCC(N)=O)NC(=O)[C@H](Cc2c[nH]c3ccccc23)NC(=O)CN)CSSC[C@@H](C(=O)N[C@@H](Cc2c[nH]c3ccccc23)C(=O)N[C@@H](CC(=O)O)C(=O)N2CCC[C@H]2C(=O)NCC(=O)NCC(=O)NCC(=O)N[C@@H](CCCCNC(=O)c2ccc3c(c2)C(=O)OC32c3ccc(O)cc3Oc3cc(O)ccc32)C(N)=O)NC(=O)[C@H](CC2CCCCC2)NC(=O)[C@H]([C@@H](C)O)NC(=O)[C@H](Cc2c[nH]c3ccccc23)NC(=O)[C@H](CO)NC(=O)[C@H](CCC(=O)O)NC1=O [Seq051-CF5, GWQPC*PAESWT-Cha-C*WDPGGGK(CF5)-NH2] (H-GWQPCPAESWT[Cha]CWDPGGGK(5FAM)-NH2; disulfide 5-13; N-terminus assumed) |
| 0.1 | CC(=O)N[C@@H](CCCNC(=N)N)C(=O)NCC(=O)N[C@@H](Cc1c[nH]c2ccccc12)C(=O)N[C@@H](CCC(N)=O)C(=O)N1CCC[C@H]1C(=O)N[C@H]1CSSC[C@@H](C(=O)N[C@@H](Cc2c[nH]c3ccccc23)C(=O)N[C@@H](CC(=O)O)C(=O)N2CCC[C@H]2C(=O)NCC(=O)NCC(=O)NCC(=O)N[C@@H](CCCCNC(=O)c2ccc3c(c2)C(=O)OC32c3ccc(O)cc3Oc3cc(O)ccc32)C(N)=O)NC(=O)[C@H](CC2CCCCC2)NC(=O)[C@H]([C@@H](C)O)NC(=O)[C@H](Cc2c[nH]c3ccccc23)NC(=O)[C@H](CO)NC(=O)[C@H](CCC(=O)O)NC(=O)[C@H](C)NC(=O)[C@@H]2CCCN2C1=O [Seq053-CF5, Ac-RGWQPC*PAESWT-Cha-C*WDPGGGK(CF5)-NH2] (Ac-RGWQPCPAESWT[Cha]CWDPGGGK(5FAM)-NH2; disulfide 6-14) |
| 0.05 | C[C@@H]1NC(=O)[C@@H]2CCCN2C(=O)[C@@H](NC(=O)[C@@H]2CCCN2C(=O)[C@H](CCC(N)=O)NC(=O)[C@H](Cc2c[nH]c3ccccc23)NC(=O)CNC(=O)[C@@H](N)CCCNC(=N)N)CSSC[C@@H](C(=O)N[C@@H](Cc2c[nH]c3ccccc23)C(=O)N[C@@H](CC(=O)O)C(=O)N2CCC[C@H]2C(=O)NCC(=O)NCC(=O)NCC(=O)N[C@@H](CCCCNC(=O)c2ccc3c(c2)C(=O)OC32c3ccc(O)cc3Oc3cc(O)ccc32)C(N)=O)NC(=O)[C@H](CC2CCCCC2)NC(=O)[C@H]([C@@H](C)O)NC(=O)[C@H](Cc2c[nH]c3ccccc23)NC(=O)[C@H](CO)NC(=O)[C@H](CCC(=O)O)NC1=O [Seq054-CF5, RGWQPC*PAESWT-Cha-C*WDPGGGK(CF5)-NH2] (H-RGWQPCPAESWT[Cha]CWDPGGGK(5FAM)-NH2; disulfide 6-14) |

Second part, the molecule before the results:

| SMILES | Kd [µM] |
| --- | --- |
| CC(=O)N[C@@H](CO)C(=O)NCC(=O)N[C@@H](CO)C(=O)NCC(=O)NCCOCCOCC(=O)N[C@@H](Cc1c[nH]c2ccccc12)C(=O)N[C@@H](CCC(N)=O)C(=O)N1CCC[C@H]1C(=O)N[C@H]1CSSC[C@@H](C(=O)N[C@@H](Cc2c[nH]c3ccccc23)C(=O)N[C@@H](CC(=O)O)C(=O)N2CCC[C@H]2C(=O)NCC(=O)NCC(=O)NCC(=O)N[C@@H](CCCCNC(=O)c2ccc3c(c2)C(=O)OC32c3ccc(O)cc3Oc3cc(O)ccc32)C(N)=O)NC(=O)[C@H](Cc2ccccc2)NC(=O)[C@H]([C@@H](C)O)NC(=O)[C@H](Cc2c[nH]c3ccccc23)NC(=O)[C@H](CO)NC(=O)[C@H](CCC(=O)O)NC(=O)[C@H](C)NC(=O)[C@@H]2CCCN2C1=O [Seq045-CF5] (Ac-SGSG[AEEA]WQPCPAESWTFCWDPGGGK(5FAM)-NH2; disulfide 9-17) | 0.57 |
| CC(=O)N[C@@H](CCCNC(=N)N)C(=O)N[C@@H](CCCNC(=N)N)C(=O)NCC(=O)NCC(=O)N[C@@H](Cc1c[nH]c2ccccc12)C(=O)N[C@@H](CCC(N)=O)C(=O)N1CCC[C@H]1C(=O)N[C@H]1CSSC[C@@H](C(=O)N[C@@H](Cc2c[nH]c3ccccc23)C(=O)N[C@@H](CC(=O)O)C(=O)N2CCC[C@H]2C(=O)NCC(=O)NCC(=O)NCC(=O)N[C@@H](CCCCNC(=O)c2ccc3c(c2)C(=O)OC32c3ccc(O)cc3Oc3cc(O)ccc32)C(N)=O)NC(=O)[C@H](Cc2ccccc2)NC(=O)[C@H]([C@@H](C)O)NC(=O)[C@H](Cc2c[nH]c3ccccc23)NC(=O)[C@H](CO)NC(=O)[C@H](CCC(=O)O)NC(=O)[C@H](C)NC(=O)[C@@H]2CCCN2C1=O [Seq046-CF5] (Ac-RRGGWQPCPAESWTFCWDPGGGK(5FAM)-NH2; disulfide 8-16) | 0.22 |
| CC(=O)N[C@@H](CCCNC(=N)N)C(=O)N[C@@H](Cc1c[nH]c2ccccc12)C(=O)N[C@@H](CCC(N)=O)C(=O)N1CCC[C@H]1C(=O)N[C@H]1CSSC[C@@H](C(=O)N[C@@H](Cc2c[nH]c3ccccc23)C(=O)N[C@@H](CC(=O)O)C(=O)N2CCC[C@H]2C(=O)NCC(=O)NCC(=O)NCC(=O)N[C@@H](CCCCNC(=O)c2ccc3c(c2)C(=O)OC32c3ccc(O)cc3Oc3cc(O)ccc32)C(N)=O)NC(=O)[C@H](Cc2ccccc2)NC(=O)[C@H]([C@@H](C)O)NC(=O)[C@H](Cc2c[nH]c3ccccc23)NC(=O)[C@H](CO)NC(=O)[C@H](CCC(=O)O)NC(=O)[C@H](Cc2c[nH]c3ccccc23)NC(=O)[C@@H]2CCCN2C1=O [Seq048-CF5] (Ac-RWQPCPWESWTFCWDPGGGK(5FAM)-NH2; disulfide 5-13) | 0.11 |
| CC(=O)N[C@@H](CCCNC(=N)N)C(=O)N[C@@H](Cc1c[nH]c2ccccc12)C(=O)N[C@@H](CCC(N)=O)C(=O)N1CCC[C@H]1C(=O)N[C@H]1CSSC[C@@H](C(=O)N[C@@H](Cc2c[nH]c3ccccc23)C(=O)N[C@@H](CC(=O)O)C(=O)N2CCC[C@H]2C(=O)NCC(=O)NCC(=O)NCC(=O)N[C@@H](CCCCNC(=O)c2ccc3c(c2)C(=O)OC32c3ccc(O)cc3Oc3cc(O)ccc32)C(N)=O)NC(=O)[C@H](Cc2ccccc2)NC(=O)[C@H]([C@@H](C)O)NC(=O)[C@H](Cc2c[nH]c3ccccc23)NC(=O)[C@H](CO)NC(=O)[C@H](CCC(=O)O)NC(=O)[C@H](C)NC(=O)[C@@H]2CCCN2C1=O [Seq049-CF5] (Ac-RWQPCPAESWTFCWDPGGGK(5FAM)-NH2; disulfide 5-13) | 0.21 |
| CC(=O)N[C@@H](CCCNC(=N)N)C(=O)NCC(=O)N[C@@H](Cc1c[nH]c2ccccc12)C(=O)N[C@@H](CCC(N)=O)C(=O)N1CCC[C@H]1C(=O)N[C@H]1CSSC[C@@H](C(=O)N[C@@H](Cc2c[nH]c3ccccc23)C(=O)N[C@@H](CC(=O)O)C(=O)N2CCC[C@H]2C(=O)NCC(=O)NCC(=O)NCC(=O)N[C@@H](CCCCNC(=O)c2ccc3c(c2)C(=O)OC32c3ccc(O)cc3Oc3cc(O)ccc32)C(N)=O)NC(=O)[C@H](Cc2ccccc2)NC(=O)[C@H]([C@@H](C)O)NC(=O)[C@H](Cc2c[nH]c3ccccc23)NC(=O)[C@H](CO)NC(=O)[C@H](CCC(=O)O)NC(=O)[C@H](Cc2c[nH]c3ccccc23)NC(=O)[C@@H]2CCCN2C1=O [Seq052-CF5] (Ac-RGWQPCPWESWTFCWDPGGGK(5FAM)-NH2; disulfide 6-14) | 0.53 |
